Test [1] has as its target T1, human recombinant beta-2 adrenoreceptors (Homo sapiens, UniProt P07550).
T1 construct: expressed in transfected cells; host or cells: CHO cells
Put plainly: Beta-2 adrenoceptor binding assay ([3H](−)CGP-12177 displacement). The conditions noted are these: CHO cells expressing human beta-2 adrenoreceptors, [3H](−)CGP-12177 0.3 nM, 120 min. The essentials: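 Displacement of [3H](−)CGP-12177 (0.3 nM) from human recombinant beta-2 receptors expressed in CHO cells, measured after 120 min incubation with test compound. Bound radioligand counted by scintillation; IC50 taken from concentration-response curves as 50% of each compound's maximal inhibition.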

The test system of test [2] is LPS-induced neutrophil recruitment into the lungs. Put plainly: Inhibition of LPS-induced neutrophil recruitment into the lungs of Lewis rats. Particulars: intra-tracheal dose of 300 μg/kg, 2 h before LPS aerosol, BAL 4 h post-LPS. The test is classed as in vivo. The protocol: Inhibition of Lipoploysaccharide (LPS)-Induced Neutrophil Recruitment into the Lungs of Lewis Rats
Rats were anesthetized with 4% isoflurane, placed in the supine position at an angle of 30°, the mouth opened and the trachea exposed. A 22-gauge needle with a syringe attached was introduced into the trachea and test compound in suspension (200 μl volume per 400 g) was delivered into the lungs from approximately one centimeter above the carina. The rats were allowed to recover and two hrs later conscious animals were placed into a chamber and exposed to aerosolized LPS (1.0 mg/mL) at a rate of 3.0 L/min for 20 min. Rats were euthanized 4 h post-LPS exposure by an overdose of pentobarbital (90 mg/kg) by intra-peritoneal injection. […] The supernatant was discarded, the cells were re-suspended in PBS and total cell counts were determined based on a 10 μl sample of re-suspended cells stained with trypan blue and counts performed using a Countess® cell counter (Invitrogen). […] Manual eye counting was performed to determine the percentage number of cells in the cytospun sample (determined as macrophages, neutrophils, eosinophils, T-lymphocytes and eosinophils) and these values were used to determine the total number of each cell type per sample. Typically experiments contained a minimum of six rats per experimental group and the mean±SEM number of neutrophils was determined for each group. […]

Test [3] has as its target T2, Human recombinant PDE4B2 (Homo sapiens, UniProt Q07343).
T2 construct: purchased BPS Bioscience
The experiment in a line: Inhibition of PDE4B4 enzyme activity (PDE Glo Assay). The test is classed as biochemical. The conditions noted are these: human recombinant PDE4B2, 50 nM cAMP; read-out: PDE4 IC50. The essentials:
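Human recombinant PDE4B2 (0.12 nM) was pre-incubated with compound for 10 min at rt, then 50 nM cAMP was added for 1 hr. After IBMX stop and PKA detection, read-out was Kinase-Glo luminescence. IC50 came from a single-site nonlinear fit of RLU versus concentration.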

The test system of test [4] is LPS-induced TNF-α release from human peripheral blood mononuclear cells (PBMC). The experiment in a line: Inhibition of LPS-induced TNF-α release from human PBMC. The test is classed as cell-based. Particulars: LPS 0.4 ng/mL, 6 h, presence or absence of ICI-118551 not given. Summed up:
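Ficoll-purified primary PBMC, 100,000 cells/well, pre-incubated 30 min ± 10 μM ICI-118551 (± gives PDE4-only vs PDE4 plus beta-2 activity), then compound 1 h at 37 °C (0.1% DMSO). Stimulated with 0.4 ng/mL LPS for 6 h; supernatant TNF-α by bead cytokine assay; IC50 from single-site fit.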

The target in test [5] is T1, human recombinant beta-2 adrenoreceptors. The experiment in a line: Functional agonism of human recombinant beta-2 adrenoreceptors expressed in CHO cells (cAMP HTRF). The test is classed as cell-based. Particulars: CHO cells expressing human beta-2 adrenoreceptors, cAMP elevation, 30 min. Summed up: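 CHO cells expressing recombinant receptor incubated with compound for 30 min; intracellular cAMP rise over control read by HTRF. EC50 taken as concentration giving 50% of that compound's own maximal response, with full or partial agonism judged against isoproterenol maximum.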

Bounds are passed on as bounds.

This is an account of results in patent US8394829B2, “Bi-functional quinoline analogs” (Gilead Sciences, Inc., priority 2010, dated 2013).

T1 sequence (P07550 whole entry): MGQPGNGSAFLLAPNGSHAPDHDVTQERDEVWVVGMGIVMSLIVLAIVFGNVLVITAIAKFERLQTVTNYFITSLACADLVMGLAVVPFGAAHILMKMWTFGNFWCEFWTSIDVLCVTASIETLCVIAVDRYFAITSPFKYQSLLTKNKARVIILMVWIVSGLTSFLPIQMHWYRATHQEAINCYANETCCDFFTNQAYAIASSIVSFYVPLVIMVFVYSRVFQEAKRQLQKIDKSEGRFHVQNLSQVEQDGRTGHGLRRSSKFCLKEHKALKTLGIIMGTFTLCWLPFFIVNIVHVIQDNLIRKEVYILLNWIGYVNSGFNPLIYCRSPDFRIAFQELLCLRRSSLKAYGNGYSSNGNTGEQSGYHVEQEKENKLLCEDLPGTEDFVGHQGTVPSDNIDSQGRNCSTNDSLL
T2 sequence (Q07343 1-564 isoform Q07343-2): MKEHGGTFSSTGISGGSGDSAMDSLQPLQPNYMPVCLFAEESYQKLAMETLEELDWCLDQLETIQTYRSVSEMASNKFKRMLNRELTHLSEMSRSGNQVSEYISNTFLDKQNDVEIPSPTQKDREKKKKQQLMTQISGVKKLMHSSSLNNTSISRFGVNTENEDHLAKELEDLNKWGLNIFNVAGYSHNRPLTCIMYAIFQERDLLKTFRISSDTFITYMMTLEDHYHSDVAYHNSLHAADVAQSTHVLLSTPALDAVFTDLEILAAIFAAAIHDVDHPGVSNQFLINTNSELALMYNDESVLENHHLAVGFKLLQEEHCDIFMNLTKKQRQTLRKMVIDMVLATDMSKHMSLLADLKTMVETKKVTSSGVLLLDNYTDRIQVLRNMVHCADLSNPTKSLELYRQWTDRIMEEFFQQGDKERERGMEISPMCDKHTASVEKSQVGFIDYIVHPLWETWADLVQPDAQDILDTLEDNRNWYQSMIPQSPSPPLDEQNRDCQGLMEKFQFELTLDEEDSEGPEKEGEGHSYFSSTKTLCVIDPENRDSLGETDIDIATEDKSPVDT

As usually defined, the IC50 is the concentration that inhibits the measured activity by half. For orientation: EC50 means the concentration giving half of the maximal effect. In the case of `COc1cccc(Nc2c(C(N)=O)cnc3c(C)cc(S(=O)(=O)c4cccc(C(=O)Nc5ccc(CCCCCNC[C@H](O)c6ccc(O)c(CO)c6)cc5)c4)cc23)c1` [Example 26, (R)-6-[[3-[[4-[5-[[2-Hydroxy-2-[4-hydroxy-3-(hydroxymethyl)phenyl]ethyl]amino]pentyl]phenyl]carbamoyl]phenyl]sulfonyl]-4-[(3-methoxyphenyl)amino]-8-methylquinoline-3-carboxamide 2,2,2-trifluoroacetate], the IC50 in test [1] is > 300 nM; in test [3] it was < 100 nM. Also, the neutrophil inhibition in test [2] is ≤ 40%. Further, the EC50 is < 100 nM in test [4] and > 300 nM in test [5].
For `COc1cccc(Nc2c(C(N)=O)cnc3c(C)cc(S(=O)(=O)c4cccc(C(=O)Nc5ccc(C#CCCCN(C)C[C@H](O)c6ccc(O)c7[nH]c(=O)ccc67)cc5)c4)cc23)c1` [Example 8, (R)-6-((3-((4-(5-((2-hydroxy-2-(8-hydroxy-2-oxo-1,2-dihydroquinolin-5-yl)ethyl)(methyl)amino)pent-1-yn-1-yl)phenyl)carbamoyl)phenyl)sulfonyl)-4-((3-methoxyphenyl)amino)-8-methylquinoline-3-carboxamide], the IC50 in test [1] was > 300 nM; in test [3] it was < 100 nM. The results for the concentration giving a half-maximal response (EC50) in test [4] and in test [5] were < 100 nM and > 300 nM, respectively.
For the molecule `COc1cccc(Nc2c(C(N)=O)cnc3c(C)cc(S(=O)(=O)c4cccc(C(=O)Nc5ccc(-c6ccc(CNC[C@H](O)c7ccc(O)c8[nH]c(=O)ccc78)cc6)cc5)c4)cc23)c1` [Example 20, (R)-6-((3-((4′-(((2-hydroxy-2-(8-hydroxy-2-oxo-1,2-dihydroquinolin-5-yl)ethyl)amino)methyl)-[1,1′-biphenyl]-4-yl)carbamoyl)phenyl)sulfonyl)-4-((3-methoxyphenyl)amino)-8-methylquinoline-3-carboxamide], the IC50 in test [1] and in test [3] was < 100 nM each time. Moreover, the EC50 in test [4] and in test [5] was < 100 nM in each case.
